System: peripheral CD8+ T cells
Design: species or system human
Conditions: in vivo

Q: For QPTESIVRF, which “multimer+ of CD8+” value is on record?
A: 0.17

Q: For QYIKWPWYI, which “multimer+ of CD8+” value is on record?
A: 1.27

Q: Which “multimer+ of CD8+” value does the source give for YLQPRTFLL here?
A: 3.09

System: CD8+ T cells of HLA-A02:01-positive human donors
Format: cell-based
Conditions: not given

Q: With KLDDKDPNF as the sequence, how does the “No. Donors with pMHC specific T tells” value read?
A: 2

Q: With YLGTGPEAGL as the sequence, how does the “No. Donors with pMHC specific T tells” value read?
A: 2

Same assay, conditions: PBMCs from three HLA-A02:01-positive human donors; pMHC multimer positive CD8+ T cells

Q: With FGDDTVIEV as the sequence, how does the “No. Donors with pMHC specific T tells” value read?
A: 3

Q: With FLFLTWICL as the sequence, how does the “No. Donors with pMHC specific T tells” value read?
A: 2

Q: For FLLPSLATV, which “No. Donors with pMHC specific T tells” value is on record?
A: 2

Q: For GLTVLPPLL, which “No. Donors with pMHC specific T tells” value is on record?
A: 1

Q: For KLNDLCFTNV, which “No. Donors with pMHC specific T tells” value is on record?
A: 2

Q: With LLLDRLNQL as the sequence, how does the “No. Donors with pMHC specific T tells” value read?
A: 1

System: MHC (HLA-I and HLA-II alleles)
Design: key: +: previously assayed and confirmed as HLA-A02:01 binders in ViPR
Conditions: cited from earlier work

Sequence of MHC (HLA-I and HLA-II alleles) (P61769 21-119): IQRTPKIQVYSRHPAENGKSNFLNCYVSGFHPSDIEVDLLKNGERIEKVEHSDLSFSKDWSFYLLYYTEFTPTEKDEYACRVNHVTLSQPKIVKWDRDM

Q: With ILLNKHIDA as the sequence, how does the “Confirmed in VIPR” value read?
A: +

Q: For LLLDRLNQL, which “Confirmed in VIPR” value is on record?
A: +

Q: Which “Confirmed in VIPR” value does the source give for NLNESLIDL here?
A: +

Reference: patent US20260207734A1 (priority 2021, published 2026)
